Data on two molecules can be found in paper PMC4327562, “Emergence of terpene cyclization in Artemisia annua” (Nature Communications, 2015).

Assay [1] concerns the target T1, (E)-β-farnesene synthase (BFS), A. annua BFS (Artemisia annua, UniProt Q9FXY7, Y433A/V470G, form not given).
T1 construct: gene CASC125
To be noted: 5 mM MgCl2, pH 7.0, 30 °C, inorganic pyrophosphatase coupled. An excerpt:
(§1) malachite green assay, steady-state kinetics on (E)-β-farnesene synthase (BFS), A. annua BFS

Assay [2] addresses T2, (E)-β-farnesene synthase (BFS), A. annua BFS (Artemisia annua, UniProt Q9FXY7).
T2 construct: gene CASC125
To be noted: 5 mM MgCl2, pH 7.0, 30 °C, inorganic pyrophosphatase coupled.
Excerpt: as §1

Assay [3] deals with T3, (E)-β-farnesene synthase (BFS), A. annua BFS (Artemisia annua, UniProt Q9FXY7, Y423L/V470G, form not given).
T3 construct: gene CASC125
T3 sequence (Q9FXY7 whole entry Y423L/V470G, form open): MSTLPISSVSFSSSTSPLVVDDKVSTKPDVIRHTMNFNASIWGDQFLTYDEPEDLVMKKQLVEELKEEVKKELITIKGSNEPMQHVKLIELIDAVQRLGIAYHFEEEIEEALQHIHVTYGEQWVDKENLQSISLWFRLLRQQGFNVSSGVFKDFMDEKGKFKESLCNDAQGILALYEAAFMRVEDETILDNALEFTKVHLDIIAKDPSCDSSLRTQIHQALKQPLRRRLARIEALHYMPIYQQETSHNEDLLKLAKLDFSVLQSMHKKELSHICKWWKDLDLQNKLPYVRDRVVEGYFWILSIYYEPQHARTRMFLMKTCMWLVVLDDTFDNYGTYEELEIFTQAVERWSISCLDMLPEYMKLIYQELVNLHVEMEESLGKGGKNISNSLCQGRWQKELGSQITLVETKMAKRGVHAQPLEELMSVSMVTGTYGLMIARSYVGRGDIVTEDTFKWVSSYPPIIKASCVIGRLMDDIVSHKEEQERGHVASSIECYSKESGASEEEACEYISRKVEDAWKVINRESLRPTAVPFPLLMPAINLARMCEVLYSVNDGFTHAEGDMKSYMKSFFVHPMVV
The note with it: 5 mM MgCl2, pH 7.0, 30 °C, inorganic pyrophosphatase coupled.
Excerpt: as §1

Assay [4] addresses T4, (E)-β-farnesene synthase (BFS), A. annua BFS (Artemisia annua, UniProt Q9FXY7, Y305L/Y433A, form not given).
T4 construct: gene CASC125
The note with it: 5 mM MgCl2, pH 7.0, 30 °C, inorganic pyrophosphatase coupled.
Excerpt: as §1

Assay [5] has as its target T5, amorpha-4,11-diene synthase (ADS) (Artemisia annua, UniProt Q9AR04).
T5 construct: gene AMS1; recombinant
The experiment in a line: GC-MS product analysis and malachite green assay. The class given is biochemical. The note with it: 5 mM MgCl2, pH 7.0; numbering likely that of A. annua BFS.

T1 sequence (Q9FXY7 whole entry Y433A/V470G, form open): as the sequence (Q9FXY7 whole entry Y423L/V470G, form open) above, with L423Y, Y433A counted along it
T4 sequence (Q9FXY7 whole entry Y305L/Y433A, form open): as the sequence (Q9FXY7 whole entry Y423L/V470G, form open) above, with Y305L, L423Y, Y433A, G470V counted along it
T5 sequence (Q9AR04 whole entry): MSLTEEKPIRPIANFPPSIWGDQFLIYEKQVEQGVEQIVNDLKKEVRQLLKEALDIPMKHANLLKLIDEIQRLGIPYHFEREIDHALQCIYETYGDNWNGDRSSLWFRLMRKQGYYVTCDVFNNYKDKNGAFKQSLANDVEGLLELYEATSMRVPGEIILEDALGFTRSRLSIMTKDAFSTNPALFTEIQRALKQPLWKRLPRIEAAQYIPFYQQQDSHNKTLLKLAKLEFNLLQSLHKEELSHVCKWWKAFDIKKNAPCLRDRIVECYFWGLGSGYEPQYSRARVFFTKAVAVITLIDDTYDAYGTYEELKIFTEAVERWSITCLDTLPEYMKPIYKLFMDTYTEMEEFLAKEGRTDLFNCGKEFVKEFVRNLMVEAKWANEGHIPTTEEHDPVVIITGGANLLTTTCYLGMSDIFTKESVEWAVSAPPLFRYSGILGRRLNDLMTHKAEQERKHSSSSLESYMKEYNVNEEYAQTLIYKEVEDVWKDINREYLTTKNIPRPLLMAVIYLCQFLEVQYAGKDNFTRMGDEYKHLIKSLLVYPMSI
T2 sequence (Q9FXY7 whole entry): as the sequence (Q9FXY7 whole entry Y423L/V470G, form open) above, with L423Y, G470V counted along it

As for `CC(C)=CCC/C(C)=C/CC/C(C)=C/CO[P@@](=O)(O)OP(=O)(O)O` (stereo in doubt) [FPP, farnesyl pyrophosphate], the Km in assay [1] was found to be 4.27 µM; in assay [2] it was 10.6 µM; in assay [3], 5.99 µM; in assay [4] it was 5.22 µM.
`CC(C)=CCC/C(C)=C/CC/C(C)=C/COP(=O)(O)OP(=O)(O)O` [FPP, farnesyl pyrophosphate]: in assay [5], the “GC-MS product analysis and malachite green assay” value is “incorporating the L402Y mutation into ADS induced a broadening of cyclization products”.
